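A five-concentration, 48-hour dose response in 96-well plates underlies each endpoint, interpolated linearly between surrounding concentrations. TGI: concentration producing complete growth inhibition.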
Experiments:
Assay in all cases: DTP human tumour cell line panel, 48 h
MDA-MB-231 breast = system: MDA-MB-231 breast
SNB-19 CNS = system: SNB-19 CNS
EKVX NSCLC = system: EKVX NSCLC
T-47D breast = system: T-47D breast
HCT-15 colon = system: HCT-15 colon
SW-620 colon = system: SW-620 colon
OVCAR-8 ovarian = system: OVCAR-8 ovarian
HT29 colon = system: HT29 colon
CCRF-CEM leukemia = system: CCRF-CEM leukemia
LOX IMVI melanoma = system: LOX IMVI melanoma

SMILES: CC1=Nc2ccccc2OC(C)=C1N=Nc1ccc2nc(C)[nH]c2c1
- TGI (MDA-MB-231 breast): > 100 µM
- TGI (SNB-19 CNS): > 100 µM
- TGI (EKVX NSCLC): > 100 µM
- TGI (T-47D breast): > 100 µM
- TGI (HCT-15 colon): > 100 µM
- TGI (SW-620 colon): > 100 µM
- TGI (OVCAR-8 ovarian): > 100 µM
- TGI (HT29 colon): > 100 µM
- TGI (CCRF-CEM leukemia): > 100 µM
- TGI (LOX IMVI melanoma): > 100 µM

SMILES: Nn1c(-c2ccccc2)n[nH]c1=O
- TGI (MDA-MB-231 breast): > 100 µM
- TGI (SNB-19 CNS): > 100 µM
- TGI (EKVX NSCLC): > 100 µM
- TGI (T-47D breast): > 100 µM
- TGI (HCT-15 colon): > 100 µM
- TGI (SW-620 colon): > 100 µM
- TGI (OVCAR-8 ovarian): > 100 µM
- TGI (HT29 colon): > 100 µM
- TGI (CCRF-CEM leukemia): > 100 µM
- TGI (LOX IMVI melanoma): > 100 µM

SMILES: Nc1nccc(-c2c[nH]c3cc(Br)ccc23)n1
- TGI (MDA-MB-231 breast): > 100 µM
- TGI (SNB-19 CNS): 47.5 µM
- TGI (EKVX NSCLC): 9.15 µM
- TGI (T-47D breast): > 100 µM
- TGI (HCT-15 colon): > 100 µM
- TGI (SW-620 colon): > 100 µM
- TGI (OVCAR-8 ovarian): > 100 µM
- TGI (HT29 colon): 44.7 µM
- TGI (CCRF-CEM leukemia): > 100 µM
- TGI (LOX IMVI melanoma): 53.4 µM

SMILES: Cc1ccccc1OC(C)C(=O)NN1C(=O)CSC1c1ccccc1 (stereo not given)
- TGI (MDA-MB-231 breast): > 100 µM
- TGI (SNB-19 CNS): > 100 µM
- TGI (EKVX NSCLC): > 100 µM
- TGI (T-47D breast): > 100 µM
- TGI (HCT-15 colon): > 100 µM
- TGI (SW-620 colon): > 100 µM
- TGI (OVCAR-8 ovarian): > 100 µM
- TGI (HT29 colon): > 100 µM
- TGI (LOX IMVI melanoma): > 100 µM

SMILES: COc1ccc(N=NC(=Nc2ccccc2)c2ccc(N(CCC#N)CCC#N)cc2)cc1
- TGI (MDA-MB-231 breast): 59.7 µM
- TGI (SNB-19 CNS): > 100 µM
- TGI (EKVX NSCLC): > 100 µM
- TGI (T-47D breast): > 100 µM
- TGI (HCT-15 colon): > 100 µM
- TGI (SW-620 colon): > 100 µM
- TGI (OVCAR-8 ovarian): > 100 µM
- TGI (HT29 colon): > 100 µM

SMILES: CC(=O)Nn1c(=S)[nH]c2ccccc21
- TGI (MDA-MB-231 breast): > 100 µM
- TGI (SNB-19 CNS): > 100 µM
- TGI (EKVX NSCLC): > 100 µM
- TGI (T-47D breast): > 100 µM
- TGI (HCT-15 colon): > 100 µM
- TGI (SW-620 colon): > 100 µM
- TGI (OVCAR-8 ovarian): > 100 µM
- TGI (HT29 colon): > 100 µM
- TGI (CCRF-CEM leukemia): > 100 µM
- TGI (LOX IMVI melanoma): > 100 µM

SMILES: Cc1cccc(Cn2c3c(c4cc(O)ccc42)C(=O)c2ccccc2C3=O)c1
- TGI (MDA-MB-231 breast): > 70.8 µM
- TGI (SNB-19 CNS): > 100 µM
- TGI (EKVX NSCLC): 49 µM
- TGI (T-47D breast): > 100 µM
- TGI (HCT-15 colon): > 100 µM
- TGI (SW-620 colon): > 100 µM
- TGI (OVCAR-8 ovarian): > 93.2 µM
- TGI (HT29 colon): > 100 µM
- TGI (CCRF-CEM leukemia): > 100 µM
- TGI (LOX IMVI melanoma): > 100 µM

SMILES: Nc1c(-c2ccc(Cl)c(Cl)c2)c2ccc([N+](=O)[O-])cc2c(=O)n1-c1nc2ccccc2s1
- TGI (SNB-19 CNS): > 49.4 µM
- TGI (EKVX NSCLC): 46.8 µM
- TGI (T-47D breast): > 24.9 µM
- TGI (HCT-15 colon): > 47 µM
- TGI (SW-620 colon): > 100 µM
- TGI (OVCAR-8 ovarian): 17.9 µM
- TGI (HT29 colon): > 34.2 µM
- TGI (CCRF-CEM leukemia): 0.525 µM
- TGI (LOX IMVI melanoma): 27.3 µM

SMILES: CC1=C(Cl)C=CP(=O)(Oc2ccccc2)C1 (stereo not given)
- TGI (SNB-19 CNS): > 100 µM
- TGI (EKVX NSCLC): > 100 µM
- TGI (HCT-15 colon): > 100 µM
- TGI (SW-620 colon): > 100 µM
- TGI (OVCAR-8 ovarian): 60.6 µM
- TGI (CCRF-CEM leukemia): > 10 µM
- TGI (LOX IMVI melanoma): > 100 µM

SMILES: Oc1ccc2c(c1)c1c(n2CCN2CCOCC2)-c2ccccc2CC1
- TGI (MDA-MB-231 breast): 80 µM
- TGI (SNB-19 CNS): > 100 µM
- TGI (EKVX NSCLC): 92.5 µM
- TGI (HCT-15 colon): 66.1 µM
- TGI (SW-620 colon): > 100 µM
- TGI (OVCAR-8 ovarian): > 100 µM
- TGI (HT29 colon): 45.8 µM
- TGI (CCRF-CEM leukemia): > 100 µM
- TGI (LOX IMVI melanoma): 57.8 µM

SMILES: Cc1ccc(NC(=O)CC2Sc3ccccc3NC2=O)cc1C (stereo not given)
- TGI (SNB-19 CNS): > 100 µM
- TGI (EKVX NSCLC): > 100 µM
- TGI (HCT-15 colon): > 100 µM
- TGI (SW-620 colon): > 100 µM
- TGI (OVCAR-8 ovarian): > 100 µM
- TGI (HT29 colon): > 100 µM
- TGI (CCRF-CEM leukemia): 92.3 µM
- TGI (LOX IMVI melanoma): > 100 µM
